Like-named read-outs stand apart in the source and are kept apart here.
Experiments:
[1] = test system: CFTR; design: method as in PMID 36015300; conditions: cited from earlier work
[2] = design: method as in PMID 36015300; conditions: cited from earlier work
[3] = Short- and long-term autosampler stability of prepared QC samples at room temperature; assay type: physicochemical; conditions: autosampler
Protocol: Both short- and long-term stability were evaluated on prepared QC samples kept at room temperature for a maximum of 9 days. After 24 h from QC sample preparation and first assessment (Time 0), the stability was around 100% for all QC samples. […] Autosampler stability was tested by analyzing IVA, TEZ and ELX concentrations in QCs maintained at room temperature at time 0 (corresponding to preparation of QC samples and to the first measurement) and after 24 h (short-term stability) or 9 days (long-term stability). We also evaluated, on prepared low-, medium- and high-QC samples, the stability following one cycle of freezing (−80 °C) and thawing (after 12 days). To further assess long-term stability, n = 3 T0 and T4 of authentic samples, stored at −80 °C over a period of five months, were randomly chosen and re-analyzed. The percentage difference between the concentration measured at each sampling point and the initial concentration was calculated. Based on ICH guideline M10, a percentage difference below the 15% was considered acceptable.

[4] = Long-term −80 °C stability of authentic patient plasma samples; assay type: physicochemical, human
Protocol: (§1) We have also evaluated the stability of prepared low-, medium- and high-QC samples following one cycle of freezing (−80 °C) and thawing (after 12 days). The calculated stability for ivacaftor, tezacaftor and elexacaftor was 100–107% after 12 days. Patient samples (n = 3 T0 and T4) were randomly selected and re-analyzed after being stored at −80 °C over a period of five months. Compared to the first measurement (time 0), the stability ranged from 85.48 ± 19.83% (mean ± SD) for IVA T4 to 90.55 ± 2.42% for ELX T0 (Supplementary Table S2). Autosampler stability was tested by analyzing IVA, TEZ and ELX concentrations in QCs maintained at room temperature at time 0 (corresponding to preparation of QC samples and to the first measurement) and after 24 h (short-term stability) or 9 days (long-term stability). We also evaluated, on prepared low-, medium- and high-QC samples, the stability following one cycle of freezing (−80 °C) and thawing (after 12 days). To further assess long-term stability, n = 3 T0 and T4 of authentic samples, stored at −80 °C over a period of five months, were randomly chosen and re-analyzed. The percentage difference between the concentration measured at each sampling point and the initial concentration was calculated. Based on ICH guideline M10, a percentage difference below the 15% was considered acceptable.

[5] = design: method as in PMID 38494378; conditions: cited from earlier work
[6] = Plasma levels of IVA, TEZ and ELX by LC-MS/MS in pediatric cystic fibrosis patients at steady state on Kaftrio; assay type: in vivo, human; conditions: n = 25 pediatric CF patients, steady state; for Cmax at 4 h: both sexes, human, plasma, oral, 4 h after morning Kaftrio dose
Protocol: The clinical performance of our validated method was tested on n = 25 samples from pediatric patients affected by cystic fibrosis. Table 5 reports plasma concentrations of IVA, TEZ and ELX measured before (T0) and 4 h after (T4) the morning dose assumption of Kaftrio® (corresponding to IVA Tmax). For IVA, the plasma concentration at 12 h (T12) was obtained by using C4h*e^−β(t12−t4), and the AUC0–12h was calculated to assess the systemic exposure within the interval between two doses (Table 5). Thereafter, AUC0–12h values were multiplied by 2 in order to perform a regression analysis of T0 concentrations versus AUC0–24h.
The clinical applicability of our validated method was tested on n = 25 plasma samples from pediatric patients with a median (range) age of 9.5 (7–17) years and affected by cystic fibrosis (CF). These patients (n = 14 males and n = 11 females) were followed-up during the routine clinical practice at Pneumology and Cystic Fibrosis Unit of Bambino Gesù Children’s Hospital, and were concomitantly receiving therapies with pancreatic enzymes, bronchodilators, antibiotics (including carbapenems, macrolides, beta-lactams, lipopeptides, fluoroquinolones) and proton pump inhibitors.
In order to evaluate systemic exposure to each CFTR modulator, drug levels were measured at steady-state by collecting EDTA–whole blood samples before (T0, corresponding to the minimum plasma concentration, Ctrough,) and 4 h after the morning dose intake (T4, corresponding to the maximum concentration, Cmax). After centrifugation at 3500 rcf for 5 min, plasma was recovered from whole blood samples. Plasma samples were collected and stored at −80 °C until analysis.
According to the Kaftrio® summary of product characteristics (SmPC), patients received a morning dose consisting of two ivacaftor 75 mg/tezacaftor, 50 mg/elexacaftor, 100 mg tablets, whereas one ivacaftor 150 mg tablet was taken in the evening (every 12 h).
Elexacaftor/tezacaftor/ivacaftor plasma levels were determined using high-performance liquid chromatography (HPLC) coupled to mass spectrometry (MS/MS). EDTA–whole blood samples were collected before (T0) and 4 h after (T4) morning drug intake. Analysis of Kaftrio® plasma levels was performed at Division of Metabolic Diseases and Drug Biology of Bambino Gesù Children’s Hospital, IRCCS, in Rome (Italy). The liquid chromatography (LC) system consisted of an UHPLC Agilent 1290 Infinity II (Agilent Technologies, Deutschland GmbH, Waldbronn, Germany). Gradient chromatographic separation was performed in reverse phase mode with a Luna Omega 1.60 µm Polar C18 (100 × 2.1 mm) column (Phenomenex) maintained at 40 °C, with mobile phase A (0.1% formic acid (FA) in water) and mobile phase B (0.1% formic acid and 25% of 2-propanol in ACN). The flow rate of mobile phases was 0.4 mL/min. The duration of each chromatographic run was 10.50 min.
The volume injected was 1 μL. Detection of IVA, IVA-d9, TEZ, TEZ-d4, ELX and ELX-d3 was carried out using a 6470 Mass Spectrometry system (Agilent Technologies, Deutschland GmbH, Waldbronn, Germany) equipped with an ESI-JET-STREAM source operating in the positive ion (ESI+) mode. Mass spectrometric conditions were as follows: Gas Temperature 350 °C, Gas Flow 9 L/min, Sheath Gas Temperature 300 °C, Sheath Gas Flow 9 L/min, Capillary 4000 V, Nebulizer 35 psi.
A 10 µL measure of IS working solution with IVA-d9, TEZ-d4 and ELX-d3 was added to 50 µL of plasma or CAL or QC or blank sample in darkened tubes. After vortexing for 5 s, 300 µL of pure ACN were added to each sample. Samples were mixed for 60 s and centrifuged at 13,000 rpm for 9 min at room temperature. Thereafter, 200 µL of supernatant were collected in amber glass vials and injected into the UHPLC-MS/MS system.
Demographic data and PK parameters were analyzed using descriptive statistics. The median with interquartile range (IQR) was used to describe Ctrough levels. […]

[7] = design: method as in PMID 40245791; conditions: H-QC, after sample preparation; cited from earlier work
[8] = design: method as in ref 18 = [18]; 18. U.S. Food and Drug Administration Center for Drug Evaluation and Research: Nda/Bla, Multi-Disciplinary Review and Evaluation, Lumacaftor/Ivacaftor Available online: https://www.accessdata.fda.gov/; conditions: Trikafta drug registration documents; cited from earlier work
[9] = Stability of prepared QC samples after one cycle of freezing (−80 °C) and thawing; assay type: physicochemical; conditions: low-, medium- and high-QC samples, thawed after 12 days
Protocol: as §1

[10] = patient plasma n = 3, stored at −80 °C, 5 months vs Time 0

CC(C)(C)c1cc(C(C)(C)CO)c(O)cc1NC(=O)c1c[nH]c2ccccc2c1=O [M1-IVA, hydroxymethyl ivacaftor]
Potency of metabolite relative to parent compound [1]: 1/6

Cc1nn(C)cc1S(=O)(=O)NC(=O)c1ccc(-n2ccc(OCC(C)(C)C(F)(F)F)n2)nc1N1C[C@@H](C)CC1(C)C [ELX, Elexacaftor]
Tmax [2]: 6 h
Stability (%) ([3]; H-QC (18 µg/mL), 24 H vs Time 0): 98.74%
Stability (%) ([3]; H-QC (18 µg/mL), Day 9 vs Time 0): 114.46%
Stability (%) ([3]; L-QC (0.3 µg/mL), 24 H vs Time 0): 101.72%
Stability (%) ([3]; L-QC (0.3 µg/mL), Day 9 vs Time 0): 113.79%
Stability (%) ([3]; M-QC (8 µg/mL), 24 H vs Time 0): 99.76%
Stability (%) ([3]; M-QC (8 µg/mL), Day 9 vs Time 0): 113.09%
Stability, % of the first measurement ([4]; n = 3 T0 and T4 patients' samples, −80 °C, five months): higher than 85%
Stability (%) mean ± SD, T0 samples [4, 10]: 90.55 ± 2.42%
Stability (%) mean ± SD, T4 samples [4, 10]: 89.18 ± 18.05%
Minimum concentration (Cmin), median (range) [5]: 2800 ng/mL
Cmax at 4 h ([6]; read-out: Plasma concentration T4 (Cmax), 25th Percentile): 13300 ng/mL
Cmax at 4 h ([6]; read-out: Plasma concentration T4 (Cmax), 75th Percentile): 24100 ng/mL
Cmax at 4 h ([6]; read-out: Plasma concentration T4 (Cmax), Median): 17800 ng/mL
Plasma concentration T0 (Ctrough), 25th Percentile ([6]; before morning Kaftrio dose): 5820 ng/mL
Plasma concentration T0 (Ctrough), 75th Percentile ([6]; before morning Kaftrio dose): 12940 ng/mL
Plasma concentration T0 (Ctrough), Median ([6]; before morning Kaftrio dose): 8730 ng/mL
Remaining % after ten days in the autosampler [7]: 99.8%
Ctrough (Cmin), mean ± SD [8]: 4050 ± 2070 ng/mL
Stability after one cycle of freezing and thawing [9]: 100–107%

Reference: article PMC12298270, “Development and Validation of a New LC-MS/MS Method for Simultaneous Quantification of Ivacaftor, Tezacaftor and Elexacaftor Plasma Levels in Pediatric Cystic Fibrosis Patients” (Pharmaceuticals, 2025)
